Measured values taken from PubChem BioAssay AID1845203 (Molecular Pharmacology Branch, DTP, NCI, 2023).
Several values for one entry are separate records, joined by “and”; a condition that tells them apart may be missing. Equal values may be shown once.

Tested on: G-401 tumor spheroids, viability % test/control
Assay: Anticancer human tumor G-401 cell line growth inhibition;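 further: spheroids exposed to compound for 7 days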;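 on viability, T/C: 100% = DMSO vehicle-treated spheroids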
Conditions: spheroids with HUVEC and MSC; for viability, T/C: stronger effect = lower value
From the text: Multicellular complex tumor spheroid response to DNA repair inhibitors in combination with DNA-damaging drugs
This study explores the anticancer activities of DNA-damaging drugs and inhibitors of DNA damage repair, both as single agents and in combinations. Complex tumor spheroids comprised of malignant cells, endothelial cells and mesenchymal stem cells served as an in vitro model for human solid tumors. This model system incorporates physiologically relevant features and patient-derived or established malignant cell lines with clinically relevant genetic alterations from many tumor types. Twenty-six patient-derived or established malignant cell lines were evaluated representing sarcoma, melanoma, small cell lung cancer (SCLC), non-small cell lung cancer (NSCLC), as well as bladder, ovarian and pancreatic cancers. The concentration ranges selected for each drug and investigational agent were based upon clinically achievable concentrations if the clinical Cmax of the agent was known.
Compounds. The drugs and compounds olaparib (NSC753686), talazoparib (NSC767125), berzosertib (NSC777718), elimusertib (NSC800525), nedisertib (NSC802822), VX-984 (NSC792969), AZD-1390 (NSC803789), temozolomide (NSC362856), topotecan (NSC609699), trabectedin (NSC813783), staurosporine (NSC755774), and gemcitabine (NSC613327) were obtained from the National Cancer Institute (NCI) Developmental Therapeutics Program Chemical Repository. The FDA-approved anticancer drug set is available from the Developmental Therapeutics Program at https://dtp.cancer.gov/organization/dscb/obtaining/available_plates.htm. […] The stock solutions were prepared in dimethyl sulfoxide (DMSO, Sigma-Aldrich, St. Louis, MO, cat. D2650) at 400-fold the tested concentration and stored at -70 degrees C. Prior to their use, the stock solutions were diluted in fresh medium and the final DMSO concentration in the assay was 0.25% (v/v). All drugs and investigational agents were tested over a range starting from a high concentration at or near the clinical Cmax and decreasing in half-log increments. If the clinical Cmax for an agent had not been determined, the highest concentration tested was 10 microM.
Cell Lines. The patient-derived cancer cell (PDC) lines: 156681-154-R-J1-PDC, 283228-195-R-J1-PDC, 287954-098-R-J1-PDC, 292921-168-R-J2-PDC, 349418-098-R-PDC, 425362-245-T-J1-PDC, 556581-035-R-J1-PDC, and BL0293-F563-PDC were received from the NCI Patient-Derived Models Repository (PDMR, https://pdmr.cancer.gov). The established cell lines HS-SY-2 (RRID:CVCL_8719), MPNST, and SYO-1 (RRID:CVCL_7146) were obtained from the Sloan Kettering Institute. The alveolar soft parts sarcoma cell line ASPS-1 (RRID:CVCL_S738) was established at the NCI and grown from internal seed stocks. The following established cell lines were purchased from the American Type Culture Collection (ATCC, Manassas, VA): G-401 (ATCC, cat. CRL-1441, RRID:CVCL_0270), SW982 (ATCC, cat. HTB-93, RRID:CVCL_1734), VA-ES-BJ (ATCC, cat. CRL-2138, RRID:CVCL_1785), NCI-H719 (ATCC, cat. CRL-5837, RRID:CVCL_1582), NCI-H196 (ATCC, cat. CRL-5823, RRID:CVCL_1509), NCI-H841 (ATCC, cat. CRL-5845, RRID:CVCL_1595), NCI-H1618 (ATCC, cat. CRL-5879, RRID:CVCL_1480), NCI-H1876 (ATCC, cat. CRL-5902, RRID:CVCL_1503), DMS 114 (ATCC, cat. CRL-2066; RRID:CVCL_1174), NCI-H211 (ATCC, cat. CRL-5824; RRID:CVCL_1529), and SW 1271 (ATCC, cat. CRL-2177, RRID:CVCL_1716). The small cell lung cancer cell line COR-L88 was purchased from Sigma-Aldrich (cat. 92031917-1VL, RRID:CVCL_1141). The non-small cell lung cancer cell lines NCI-H226 (RRID:CVCL_1544) and NCI-H322M (RRID:CVCL_1557) were established at the NCI and grown from internal seed stocks. Pooled donor human umbilical vein endothelial cells (HUVEC, Lonza, cat. CC-2519) and human mesenchymal stem cells (hMSC, Lonza, cat. PT-2501) were purchased from Lonza (Walkersville, MD).
Cell Culture. All cells were maintained in an incubator at 37 degrees C and 5% CO2 with 95% humidity. […]

[1] = compound alone, run of 12/02/2019
[2] = compound alone, run of 12/12/2019

Row | Structure (SMILES) | viability, T/C (compound 0.0316 µM) | viability, T/C (compound 0.1 µM) | viability, T/C (compound 0.316 µM) | viability, T/C (compound 1 µM) | viability, T/C (compound 3.16 µM) | viability, T/C (compound 10 µM) | IC50 (curve of compound) | viability, T/C (compound 0.00949 µM) | viability, T/C (compound 0.03 µM) | viability, T/C (compound 0.0949 µM) | viability, T/C (compound 0.3 µM) | viability, T/C (compound 0.949 µM) | viability, T/C (compound 3 µM) | further results
1 | CC(C)n1c(=O)n(C)c2cnc3cc(F)c(-c4ccc(OCCCN5CCCCC5)nc4)cc3c21 | 87.5% and 105% and 107% | 92.2% and 105% and 104% | 47.9% and 100% and 108% | 90.7% and 101% and 103% | 95.9% and 98.2% and 101% | 67.4% (2×) and 86.7% | > 10 µM | – | – | – | – | – | – | –
2 | CC1COCCN1c1cc(-c2ccnn2C)c2ccnc(-c3ccn[nH]3)c2n1 (stereo not drawn) | 67% and 79% and 90.9% | 34.7% and 42.4% and 56% | 19.1% and 24.4% and 31.2% | 13.1% and 17.3% and 18.1% | 16.2% and 18.7% and 19.8% | 18.1% and 20.2% and 22.3% | 0.058 µM and 0.079 µM and 0.132 µM | – | – | – | – | – | – | –
3 | CC[C@@]1(O)C(=O)OCc2c1cc1n(c2=O)Cc2cc3c(CN(C)C)c(O)ccc3nc2-1 | – | – | – | – | – | – | – | 48.8% [middle of 10 runs] | 16% [middle of 10 runs] | 7.7% [middle of 10 runs] | 5.06% [middle of 10 runs] | – | – | viability, T/C (compound 0.003 µM): 78.6% [middle of 10 runs]; IC50 [1]: 8.64 nM [middle of 5 runs]; IC50 [2]: 9.18 nM [middle of 5 runs]
4 | CNCc1ccc(-c2cc(-c3nc(-c4ccc(S(=O)(=O)C(C)C)cc4)cnc3N)on2)cc1 | – | – | – | – | – | – | 2.17 µM and 1.77 µM and 2.02 µM | 97.3% and 93.8% and 100% | 102% and 98.4% and 99.4% | 103% and 105% and 101% | 96.6% and 96% and 97.9% | 71.3% and 64% and 69.4% | 41.7% and 38.1% and 39.8% | –
5 | COc1cc(C)[nH]c(=O)c1CN1CCc2c(Cl)cc(C(OC)C3COC3)c(Cl)c2C1=O (stereo not drawn) | 76.2% and 80.4% and 95.5% | 52.4% and 56.5% and 66.3% | 35.7% and 33.3% and 42.5% | 30.3% and 28.9% and 35.6% | 28% and 18.8% and 33.9% | 26.9% and 19% and 31.9% | 0.118 µM and 0.138 µM and 0.223 µM | – | – | – | – | – | – | –
6 | COc1cc2c(cc1O)CCNC21CSC2c3c(OC(C)=O)c(C)c4c(c3C(COC1=O)N1C(O)C3Cc5cc(C)c(OC)c(O)c5C(C21)N3C)OCO4 (stereo not drawn) | – | – | – | – | – | – | – | – | – | – | – | – | – | viability, T/C (compound 30 pM): 99.4% [middle of 10 runs]; viability, T/C (compound 0.0003 µM): 38.9% [middle of 10 runs]; viability, T/C (compound 0.000949 µM): 7.91% [middle of 10 runs]; viability, T/C (compound 0.003 µM): 0.12% [middle of 5 runs]; IC50 [2]: 0.233 nM [middle of 10 runs]
7 | COc1ccc([C@@H](O)c2cc(-c3ncnc4cc(N5CCOCC5)ccc34)c(F)cc2Cl)nn1 | 101% and 107% and 106% | 91.2% and 94.8% and 97.8% | 82.3% and 92.2% and 94.8% | 50.2% and 63.6% and 69.6% | 22.2% and 24% and 31% | 11% and 10.1% and 15.4% | 1.02 µM and 1.48 µM and 1.8 µM | – | – | – | – | – | – | –
8 | Cc1cc(C)c(CNC(=O)c2cc(-c3ccc(CN4CCOCC4)cc3)cc3c2cnn3C2CCCC2)c(=O)[nH]1 | 106% and 105% and 95.6% | 111% and 102% and 98.5% | 108% and 107% and 106% | 113% and 97.5% and 91.4% | 98.1% and 91.5% and 77.8% | 44.2% and 44.8% and 57.8% | 8.84 µM and 8.81 µM and > 10 µM | – | – | – | – | – | – | –
9 | Cc1sc2c(c1C)C(c1ccc(Cl)cc1)=NC(CC(=O)Nc1ccc(O)cc1)c1nnc(C)n1-2 (stereo not drawn) | – | – | – | – | – | – | 0.173 µM and 0.122 µM and 0.192 µM | 93.3% and 106% and 91.1% | 86.6% and 75.1% and 80.9% | 65.4% and 56.4% and 67.6% | 34.7% and 35.5% and 37.8% | 20.1% and 20% and 21.8% | 10% and 11.8% and 7.68% | –
10 | Cn1ncnc1[C@H]1c2n[nH]c(=O)c3cc(F)cc(c23)N[C@@H]1c1ccc(F)cc1 | – | – | – | – | – | – | 0.049 µM and 0.143 µM and 0.12 µM | 70.3% and 90% and 80.4% | 54.4% and 75.6% and 67% | 43.7% and 56% and 56.1% | 28.6% and 38.6% and 34.7% | 17.3% and 23.2% and 21.1% | 12.2% and 14.5% and 11.7% | –
11 | Cn1nnc2c(C(N)=O)ncn2c1=O | – | – | – | 102% [middle of 10 runs] | 102% [middle of 10 runs] | 103% [middle of 10 runs] | – | – | – | – | – | – | – | viability, T/C (compound 31.6 µM): 96.8% [middle of 10 runs]; viability, T/C (compound 100 µM): 94.8% [middle of 9 runs]; IC50 [1]: > 100 µM
12 | O=C(c1cc(Cc2n[nH]c(=O)c3ccccc23)ccc1F)N1CCN(C(=O)C2CC2)CC1 | – | – | – | – | – | – | 13.9 µM and 9.39 µM and 14.2 µM | – | – | 98.3% and 98.6% and 96.5% | 97.5% and 84.9% and 91.2% | 96.1% and 86.9% and 105% | 83.7% and 82.5% and 87% | viability, T/C (compound 9.49 µM): 54.9% and 49.4% and 58.5%; viability, T/C (compound 30 µM): 40.1% and 28.5% and 34.9%
13 | [2H]c1nc(C)nc([2H])c1-c1cc(NC[C@@H](C)c2cccc3c(C(=O)NC)ccnc23)ncn1 | 104% and 105% and 96.6% | 108% and 98.9% and 97.7% | 103% and 105% and 98.1% | 102% and 98.9% and 98.6% | 105% and 103% and 98.3% | 104% and 103% and 98% | > 10 µM | – | – | – | – | – | – | –
